Molecules are shown by their SMILES. Converted amounts (≈) assume the structure as drawn. Where two headings read alike, the source gives them in different places.

One series deals with A2780. Put plainly: in vitro cytotoxicity, tumor cell line A2780. The series is classed as cell-based. Conditions: Homo sapiens. The method, then: (§1) General Experimental Procedures. NMR spectra were obtained on a Bruker DRX 500 MHz spectrometer, equipped with a 5-mm TXI cryoprobe. Proton and carbon chemical shifts are reported in ppm relative to DMSO at δH 2.49 and δC 39.6. LC-NMR on an enriched psoroxanthin (4) sample was conducted with a Varian Inova 600 MHz instrument, using a YMC ODS-AQ (C18) column, 4.6×150 mm, 3μ and mobile phase water-acetonitrile 7:3, isocratic, 1.2 ml/min flow rate. Low-resolution MS and MS/MS measurements were performed by +νe ESI on a Thermo Scientific Finnigan SSQ7000 (single quadrupole MS), TSQ7000 (triple quadrupole MS), or LCQ Classic (ion trap MS). High-resolution MS data were determined by HR +νe ESI on a Thermo Scientific Finnigan MAT900 (magnetic sector MS, polypropylene glycol reference) or Orbitrap (hybrid ion trap-FTICR MS). IR spectra were recorded with a Perkin-Elmer System 2000 FT-IR instrument (thin film-NaCl). UV spectra were obtained using a Hewlett-Packard 8452A diode array spectrophotometer. Sephadex LH-20 (Pharmacia Biotech) and LiChroprep Si 60, 25-40 μm (EM Separations) were used for column chromatography. HPLC(C18) conditions: Analytical: Agilent HP-1100, Waters corp. […]
(§2) The SOS active compounds 1 and 4 were evaluated for in vitro cytotoxicity in a variety of tumor cell lines. […]

Another series relates to HCT-116. Put plainly: in vitro cytotoxicity, tumor cell line HCT-116. The class given is cell-based. Conditions: Homo sapiens. The method, then: as §1, §2
Series [1] in a line: in vitro cytotoxicity, ABAE bovine endothelial cells. The class given is cell-based. As to conditions: bovine, ABAE endothelial cells; ABAE cell line. The method, then:
(§3) In particular there was a clear in vitro cytotoxicity observed against ABAE cells (bovine endothelial cell line, 0.03 μg/ml).
as §1, with “corp. X-Terra […] (C18) column, 4.6×150 mm; mobile phase: 0.01 N potassium phosphate buffer pH 3.5-acetonitrile gradient, flow rate 1.2 ml/min. UV 254 nm (Hook, D. J., More, C. F., Yacobucci, J. J., Dubay, G., O'Connor, S.; J. Chromatogr., 1987, 385, 99-108.) Preparative: Beckman System Gold workstation, YMC ODS-A 5μ (C18) column, 20×100 mm. For TLC biogram (SOS) analyses, Silica gel plates (Analtech, 0.25 mm) with chloroform-methanol mixtures (i.e. 95:5 v/v) as the mobile phase were used. For HPLC biogram (SOS) analyses, fractions were collected into Beckman 96-deepwell plates using a Gilson 215 liquid handler and dried under nitrogen stream prior to bioassay.” for “corp.”
as §2

The test system of series [2] is ABAE cells (bovine endothelial cell line). Described as above. The series is classed as cell-based. Conditions: versus the tumor cell lines. The protocol: as §3
as §1, with “corp. X-Terra […] (C18) column, 4.6×150 mm; mobile phase: 0.01 N potassium phosphate buffer pH 3.5-acetonitrile gradient, flow rate 1.2 ml/min. UV 254 nm (Hook, D. J., More, C. F., Yacobucci, J. J., Dubay, G., O'Connor, S.; J. Chromatogr., 1987, 385, 99-108.) Preparative: Beckman System Gold workstation, YMC ODS-A 5μ (C18) column, 20×100 mm. For TLC biogram (SOS) analyses, Silica gel plates (Analtech, 0.25 mm) with chloroform-methanol mixtures (i.e. 95:5 v/v) as the mobile phase were used. For HPLC biogram (SOS) analyses, fractions were collected into Beckman 96-deepwell plates using a Gilson 215 liquid handler and dried under nitrogen stream prior to bioassay.” for “corp.”
as §2

In another series the test system is SKBR3. Put plainly: in vitro cytotoxicity, tumor cell line SKBR3. The series is classed as cell-based. As to conditions: Homo sapiens, SK-BR-3, read-out: Cytotoxicity IC50. The protocol:
as §1, §2

For another series, the system named is 6-cell line panel. Put plainly: cytotoxicity in a 6-cell line panel. The class given is cell-based. As to conditions: read-out: mean IC50, cytotoxicity. The protocol: as §3, §1
Series [3] deals with Escherichia coli SOS chromotest. Put plainly: Escherichia coli SOS chromotest (TLC/HPLC biogram). The series is classed as cell-based. As to conditions: E. coli SOS chromotest. The source says: The crude extracts as received were subjected to a modified “Kupchan” liquid-liquid partitioning sequence, (Kupchan, S. M., Britton, R. W., Ziegler, M. F., Sigel, C. W.; J. Org. Chem., 1973, 38, 178-179.), followed by gel partition chromatography (Sephadex LH-20) and/or Silica gel vacuum liquid chromatography. The fractionation was guided initially by TLC-bioautography using the Escherichia coli SOS chromotest assay. ((a) Quillardet, P.; Huisman, O.; D'Ari, R.; Hofnung, M. Proc. Natl. Acad. Sci. U.S.A. 1982, 79, 5971-5975. (b) Mamber, S. W.; Okasinski, W. G.; Pinter, C. D.; Tunac, J. B. Mutat. Res., 1986, 171, 83-90.). More precise localization of the peak of SOS activity was later made possible using HPLC biogram methodology. ((a) Fura, A.; Shu, Y.-Z.; Zhu, M.; Hanson, R. L.; Roongta, V.; Humphreys, W. G. J. Med. Chem. 2004, 47, 4339-4351. (b) Hook, D. J., More, C. F., Yacobucci, J. J., Dubay, G., O'Connor, S.; J. Chromatogr., 1987, 385, 99-108.). In this manner, analytical HPLC was used to further fractionate the SOS-active sample into 96-deep-well plates. […]
General Experimental Procedures. […] High-resolution MS data were determined by HR +νe ESI on a Thermo Scientific Finnigan MAT900 (magnetic sector MS, polypropylene glycol reference) or Orbitrap (hybrid ion trap-FTICR MS). IR spectra were recorded with a Perkin-Elmer System 2000 FT-IR instrument (thin film-NaCl). […]

A further series concerns various tumor cell lines. As to conditions: cited from earlier work.
The test system of a further series is p388 mouse leukemia. As to conditions: cited from earlier work.

As for `O=c1c2c(O)cccc2oc2ccc3c(c12)CC(C(O)(CO)CCl)O3` (centres unmarked) [Example 1, 3′,4′-deoxy-4′ chloropsoroxanthin-3′,5′-diol], the IC50 in the series on A2780 (A2780, read-out: Cytotoxicity IC50) was 42 nM; in the series on HCT-116 (HCT-116, read-out: Cytotoxicity IC50), 68 nM; in series [1] it was 4 nM; with SKBR3, 2000 nM; in the series with 6-cell line panel, 0.2 to 4 µg/mL (≈ 0.551 to 11 µM). For the same molecule, the “selectivity against bovine endothelial cells (ABAE)” value in series [2] is on record as “showed selectivity against bovine endothelial cells (ABAE)”. For the same molecule, the SOS activity entry in series [3] was “SOS-active”.
With `O=c1c2c(O)cccc2oc2ccc3c(c12)CC(C1(CO)CO1)O3` (centres unmarked) [Example 4, Psoroxanthin], the IC50 with A2780 (A2780 cell line, read-out: Cytotoxicity IC50) is 330 nM; in the series with HCT-116 (HCT-116 cell line, read-out: Cytotoxicity IC50) it was 1000 nM; in series [1], 102 nM; in the series with 6-cell line panel (mean over 6-cell line panel), 0.2 to 4 µg/mL (≈ 0.613 to 12.3 µM). The SOS activity result in [3] is on record as “highly potent SOS-active”.
As to `COc1cc2c(c3oc4c(O)cccc4c(=O)c13)C[C@H]([C@@]1(C)CO1)O2` [psorospermin], in the series with various tumor cell lines, the “activity in vitro against various tumor cell lines” value is “significant activity”. In addition, the “activity in vivo against p388 mouse leukemia” value in the series on p388 mouse leukemia was “significant activity”.

Source of the values: US8263644B2, “Cytotoxic xanthone compounds” (Bristol-Myers Squibb Company, priority 2007, dated 2012).
